According to ChEMBL document CHEMBL1667782, “Glucose-lowering activity of novel tetrasaccharide glyceroglycolipids from the fruits of Cucurbita moschata” (2011):

Assays:
Format in all cases: functional
Conditions in all cases: route intraperitoneal
Mus musculus [1] = assay: Antidiabetic activity in streptozotocin-induced C57/BL6J mouse diabetic model assessed as serum glucose level at 50 mg/kg, ip after 21 days (reference value: 23.89 +/- 6.98 mmol/L)
Mus musculus [2] = assay: Antidiabetic activity in streptozotocin-induced C57/BL6J mouse diabetic model assessed as serum glucose level at 50 mg/kg, ip after 14 days (reference value: 22.17 +/- 5.63 mmol/L)
Mus musculus [3] = assay: Antidiabetic activity in streptozotocin-induced C57/BL6J mouse diabetic model assessed as serum glucose level at 50 mg/kg, ip after 28 days (reference value: 23.77 +/- 6.12 mmol/L)
Mus musculus [4] = assay: Antidiabetic activity in streptozotocin-induced C57/BL6J mouse diabetic model assessed as serum glucose level at 50 mg/kg, ip after 7 days (reference value: 22.65 +/- 6.16 mmol/L)

| Compound | Activity (Mus musculus [1]) [mmol/L] | Activity (Mus musculus [2]) [mmol/L] | Activity (Mus musculus [3]) [mmol/L] | Activity (Mus musculus [4]) [mmol/L] |
| --- | --- | --- | --- | --- |
| CCCCC/C=C\C/C=C\CCCCCCCC(=O)OCC(O)CO[C@@H]1O[C@H](CO[C@@H]2O[C@H](CO[C@@H]3O[C@H](CO[C@@H]4O[C@H](CO)[C@H](O)[C@H](O)[C@H]4O)[C@H](O)[C@H](O)[C@H]3O)[C@H](O)[C@H](O)[C@H]2O)[C@H](O)[C@H](O)[C@H]1O (stereo partly drawn) | 18.17 | 19.09 | 15.73 | 21.47 |
| CC/C=C\C/C=C\C/C=C\CCCCCCCC(=O)OCC(O)CO[C@@H]1O[C@H](CO[C@@H]2O[C@H](CO[C@@H]3O[C@H](CO[C@@H]4O[C@H](CO)[C@H](O)[C@H](O)[C@H]4O)[C@H](O)[C@H](O)[C@H]3O)[C@H](O)[C@H](O)[C@H]2O)[C@H](O)[C@H](O)[C@H]1O (stereo partly drawn) | 16.36 | 18.27 | 14.61 | 20.89 |
